Read-outs that look alike come from different tables or passages of the source.
How the values were obtained:
[1] = system: T cell proliferation in mouse spleen cell mixed lymphocyte cultures; assay: Mixed Lymphocyte Reaction (MLR) assay; assay type: cell-based, mouse (Balb/c responder, C57B1/6 stimulator); conditions: for inhibition at 3 µM / inhibition at 10 µM / inhibition at 30 µM / inhibition at 100 µM / inhibition at 300 µM: Mus musculus, Lymphocyte, read-out: % Change From Control, MLR
Text: The pharmacologic assays performed to determine the immunomodulatory effects of the experimental compounds in vitro include the Mixed Lymphocyte Reaction (MLR) and the ConA blastogenesis assay. These assays were used to determine the inhibitory effects of the compounds of the invention on T lymphocyte activation and proliferation. Since inflammation at the cellular level is characterized by T lymphocyte recruitment, activation and proliferation, these assays are appropriate to use as screens for novel compounds having therapeutic potential in the treatment of disorders in which inflammatory mechanisms are involved.
The MLR is a classical assay used to measure T cell function by studying the proliferative response of T cells which are activated in vitro by genetically disparate stimulator cells. This is accomplished by co-culturing spleen cells from two different strains of mice. Splenic T cell proliferation occurs as a result of cellular activation signals generated by the ongoing cellular interactions.
Balb/c mice were euthanised by cervical dislocation and their spleens removed. Single cell suspensions of the spleens were prepared in culture medium (hepes buffered RPMI-1640 supplemented with 10% fetal calf serum, 2mM glutamine, 500 units penicillin/ streptomycin, and 4×10^-5 M 2-mercaptoethanol) using a Teflon pestle. The cells were centrifuged at 1500 rpm and the pellets resuspended in ACT (0.15M tris, 0.14M ammonium chloride, pH 7.2) in order to lyse the red blood cells. After a 5 minute incubation in a 37 C. waterbath, the cells were resuspended in culture medium and counted. C57B1/6 spleen cells which were used as stimulator cells, were also prepared by this method. The stimulator cells were treated with 100 ug/ml of mitomycin c for 1 hour at 37 C. (to inhibit stimulatory cell proliferation) and were then washed 5 times in culture medium. The proliferative responses were measured by culturing 2.5×10^5 responder cells with 5×10^5 stimulatory cells in 96 well microtiter plates in the presence or absence of various doses of test compounds or vehicle (DMSO). Syngeneic control cultures using mitomycin c treated Balb/c spleen cells as stimulator cells were also run. All cultures were run in triplicate.
Solutions of compounds of the present invention in DMSO were prepared at a stock concentration of 120 Mm. Dilutions were made in culture medium to the following concentrations: 3, 10, 30, 100, and 300 uM. The vehicle (DMSO) was used as a negative control.
After incubation of for 5 days at 37 C. with 5% CO2, the amount of cell proliferation was measured by adding 20 ul of MTT (3-[4,5-dimethylthiazol-2-yl]-2,5diphenyl-tetrazolium bromide) (10 mg/ml in phosphate buffered saline) to each well. Plates were incubated for 4 hours at 37 C., after which 180 ul of 10% sodium dodecyl sulphate in phosphate buffered saline was added. After an overnight incubation, the optical density (OD) of each well was read on a Molecular Devices microplate reader at 570-650 nm. The results were determined by calculating the difference between the means of the allogeneic cultures and the means of the syngenic cultures for each test article concentration. Differences of the test article groups were compared to the control group and the percent change from the control was determined.

[2] = system: T lymphocytes (normal mouse spleen cells) stimulated with ConA; assay: Mouse Spleen Cell ConA Blastogenesis Assay; assay type: cell-based, mouse (C57Bl/6); conditions: Mus musculus, T-lymphocyte; for inhibition at 1 µg/mL: compound 1 ug/ml; for inhibition at 2.5 µg/mL: compound 2.5 ug/ml; for inhibition at 10 µg/mL: compound 10 ug/ml; for inhibition at 25 µg/mL: compound 25 ug/ml; for inhibition at 0.1 µg/mL: compound 0.1 ug/ml
Text: It is well known that several plant lectins, when cultured in vitro with lymphocytes, stimulate cellular activation and proliferation. Concanavolin, (ConA) selectively stimulates the blastogenic response of T lymphocytes.
Six to 8 week old male C57Bl/6 mice were purchased from Harlan Sprague Dawley (Indianapolis, Ind.).
Spleens were removed and were homogenized to obtain a single cell suspension. Erythrocytes were lysed by hypotonic shock. Upon determination of the viability and concentration of the lymphoid cells, they were adjusted to 4×10^6 cells/ml in culture medium (RPMI-1640) supplemented with 10% fetal bovine serum; 100 ug/ml streptomycin; 100 U/ml penicillin, 0.2M hepes buffer; 5×10^-5 M 2-mercaptoethanol and 2 mM glutamine). seeded into microtiter plate wells at 2×10^5 cells/0.050 ml/well. To these cultures were added various doses of experimental compounds and ConA at a final concentration of 4 or 1 ug/ml. Control cultures consisted of cells, ConA and culture medium containing the vehicle, DMSO only. […] For the testing of the methyl 1,3-O-isopropylidene-6-O-n-heptyl-α-D-fructofuranoside compound indomethacin and NDGA were used as controls. All cultures were run in triplicate.
Solutions of compounds of the invention in DMSO were prepared and dilutions were made in culture medium. Assay concentrations were either: 1, 2.5, 10, 25, 100, 300 and 750 ug/ml or 0.001, 0.01, 0.1, 1, 2.5, 10, 25 and 100 ug/ml.
Cultures were incubated for 3 days at 37° C. in a humidified atmosphere of 5% of CO2 in air. For the last 18 hours of culture, 1 uCi of ^3 H-thymidine was also incubated in each well. The cells were precipitated by a multi-channel harvester. The amount of ^3 H-thymidine incorporated by the cultures, as a measure of cell proliferation, was measured in a liquid scintillation counter. The amount of radioactive incorporation is proportional to the amount of cellular proliferation in individual wells. The students T test was used to determine the significance of the difference between experimental and control values.

[3] = ConA 1 ug/ml, read-out: % change from control, ConA blastogenic response
[4] = ConA 1 ug/ml, compound 100 ug/ml, read-out: % change from control, ConA blastogenic response
[5] = ConA 4 ug/ml, read-out: % change from control, ConA blastogenic response
[6] = ConA 4 ug/ml, compound 100 ug/ml, read-out: % change from control, ConA blastogenic response
[7] = ConA 1 ug/ml, 0.01 ug/ml, read-out: % Change from Control (Table II)
[8] = ConA 1 ug/ml, compound 0.01 ug/ml, read-out: % change from control, ConA blastogenic response
[9] = ConA 4 ug/ml, 0.01 ug/ml, read-out: % Change from Control (Table II)
[10] = ConA 4 ug/ml, compound 0.01 ug/ml, read-out: % change from control, ConA blastogenic response

Row | SMILES | inhibition at 1 µg/mL [2, 3] [%] | inhibition at 2.5 µg/mL [2, 3] [%] | inhibition at 10 µg/mL [2, 3] [%] | inhibition at 25 µg/mL [2, 3] [%] | inhibition at 100 µg/mL [2, 4] [%] | inhibition at 1 µg/mL [2, 5] [%] | inhibition at 2.5 µg/mL [2, 5] [%] | inhibition at 10 µg/mL [2, 5] [%] | inhibition at 25 µg/mL [2, 5] [%] | inhibition at 100 µg/mL [2, 6] [%] | Mean O.D. Allogenic ([1]; 3 um) [O.D.] | Mean O.D. Syngeneic ([1]; 3 um) [O.D.] | Mean O.D. Allogenic ([1]; 10 um) [O.D.] | Mean O.D. Syngeneic ([1]; 10 um) [O.D.] | Mean O.D. Allogenic ([1]; 30 um) [O.D.] | Mean O.D. Syngeneic ([1]; 30 um) [O.D.] | Mean O.D. Allogenic ([1]; 100 um) [O.D.] | Mean O.D. Syngeneic ([1]; 100 um) [O.D.] | Mean O.D. Allogenic ([1]; 300 um) [O.D.] | Mean O.D. Syngeneic ([1]; 300 um) [O.D.] | further results
1 | CCCCCCCCCCCCOC1C(C(O)CO)OC2OC(C)(C)OC21 [IIa, 1,2-O-Isopropylidene-3-O-n-dodecyl-α-D-glucofuranose] | 21 | 60 | 95 | 99 | 100 | 33 | 50 | 83 | 94 | 100 |  |  |  |  |  |  |  |  |  |  | % Change From Control, MLR ([1]; Table X, 3 ugm): -19%; % Change From Control, MLR ([1]; Table X, 10 ugm): -40%; Mean O.D. Allogenic ([1]; Table X, 10 ugm): 0.185 O.D.; Mean O.D. Syngeneic ([1]; Table X, 10 ugm): 0.135 O.D.; % Change From Control, MLR ([1]; Table X, 30 ugm): 23%; Mean O.D. Allogenic ([1]; Table X, 30 ugm): 0.158 O.D.; Mean O.D. Syngeneic ([1]; Table X, 30 ugm): 0.056 O.D.; % Change From Control, MLR ([1]; Table X, 100 ugm): -86%; % Change From Control, MLR ([1]; Table X, 300 ugm): -96%; strong non-dose dependent inhibition in MLR ([1]; several concentrations): greater than -50 % of control; inhibition at 100 µg/mL ([2]; 100 ug/ml, read-out: strong inhibition of ConA stimulated T lymphocyte proliferation): < 50%
2 | CCCCCCCOC[C@H]1O[C@](COCC)(OC)[C@@H](OCC)[C@@H]1O [Ib, methyl 1,3-di-O-ethyl-6-O-heptyl-α-D-fructofuranoside] | 72 | 92 | 96 | 97 | 99 | 67 | 68 | 76 | 86 | 99 | 0.319 | 0.162 | 0.382 | 0.194 | 0.372 | 0.185 | 0.353 | 0.223 | 0.265 | 0.189 | inhibition at 3 µM ([1]; 3 um): 18%; inhibition at 10 µM ([1]; 10 um): 2%; inhibition at 30 µM ([1]; 30 um): 3%; inhibition at 100 µM ([1]; 100 um): 32%; inhibition at 300 µM ([1]; 300 um): 60%; inhibition at 0.01 µg/mL [2, 7]: 55%; inhibition at 0.01 µg/mL [2, 8]: 57%; inhibition at 0.1 µg/mL [2, 3]: 66%; inhibition at 0.01 µg/mL [2, 9]: 25%; inhibition at 0.01 µg/mL [2, 10]: 35%; inhibition at 0.1 µg/mL [2, 5]: 45%
3 | CCCCCCCO[C@@H]1[C@@H](CO)O[C@@]2(OC)COC(C)(C)O[C@@H]12 [Ic, methyl 1,3-O-isopropylidene-4-O-heptyl-α-D-fructofuranoside] | 19 | 21 | 79 | 99 | 100 | 35 | 51 | 91 | 99 | 100 | 0.207 | 0.096 | 0.198 | 0.106 | 0.200 | 0.148 | 0.163 | 0.077 | 0.034 | 0.159 | inhibition at 3 µM ([1]; 3 um): -34%; inhibition at 10 µM ([1]; 10 um): -11%; inhibition at 30 µM ([1]; 30 um): 37%; inhibition at 100 µM ([1]; 100 um): -4%; inhibition at 300 µM ([1]; 300 um): 251%; inhibition at 0.01 µg/mL [2, 7]: -11%; inhibition at 0.01 µg/mL [2, 8]: -8%; inhibition at 0.1 µg/mL [2, 3]: 3%; inhibition at 0.01 µg/mL [2, 9]: 8%; inhibition at 0.01 µg/mL [2, 10]: -14%; inhibition at 0.1 µg/mL [2, 5]: 8%
4 | CCCCC/C=C\COC[C@H]1O[C@@]2(OC)COC(C)(C)O[C@H]2[C@@H]1OC/C=C\CCCCC [If, methyl 1,3-O-isopropylidene-4,6-di-O-(cis,2-octenyl)-α-D-fructofuranoside] | 14 | 25 | 74 | 85 | 4 | 26 | 42 | 79 | 87 | 88 | 0.195 | 0.140 | 0.199 | 0.134 | 0.199 | 0.164 | 0.102 | 0.025 | 0.032 | 0.022 | inhibition at 3 µM ([1]; 3 um): 34%; inhibition at 10 µM ([1]; 10 um): 22%; inhibition at 30 µM ([1]; 30 um): 58%; inhibition at 100 µM ([1]; 100 um): 7%; inhibition at 300 µM ([1]; 300 um): 88%; inhibition at 0.01 µg/mL [2, 7]: 8%; inhibition at 0.01 µg/mL [2, 8]: -6%; inhibition at 0.1 µg/mL [2, 3]: 2%; inhibition at 0.01 µg/mL [2, 9]: 4%; inhibition at 0.01 µg/mL [2, 10]: 0%; inhibition at 0.1 µg/mL [2, 5]: 23%

From patent publication US5298494A, “Monosaccharides having anti-proliferation and anti-inflammatory activity, compositions and uses thereof” (Greenwich Pharmaceuticals Incorporated, priority 1993, dated 1994)
